In ChEMBL document CHEMBL5154644, “Design, Synthesis, and Structure-Activity Relationship Optimization of Pyrazolopyrimidine Amide Inhibitors of Phosphoinositide 3-Kinase γ (PI3Kγ)” (J Med Chem, 2022):
Active and inactive are the calls of the source. The calls are words filed in the database; no cut-off is given here.

Tests used:
[1] = organism: Homo sapiens; assay: Selectivity ratio of IC50 for inhibition of PI3Kalpha (unknown origin) to IC50 for inhibition of PI3Kgamma (unknown origin)
[2] = Metabolic stability in rat hepatocyte assessed as intrinsic clearance per 10^8 cells at 0.5 uM by LC-MS/MS analysis; type: ADME, cell-based; conditions: hepatocytes
[3] = Clearance in Sprague-Dawley rat at 1 mg/kg, iv measured up to 8 hrs by LC-MS/MS analysis; type: ADME, organism-based; conditions: in vivo
[4] = Half life in Sprague-Dawley rat at 1 mg/kg, iv measured up to 8 hrs by LC-MS/MS analysis; type: ADME, organism-based; conditions: in vivo
[5] = target: T1, Phosphatidylinositol 4,5-bisphosphate 3-kinase catalytic subunit gamma isoform (Homo sapiens, UniProt P48736); assay: Inhibition of P13Kgamma in LPS and IFNgamma stimulated human M1 macrophage assessed as increase in IL1B expression at 1 uM pretreated for 1 hr followed by LPS and IFNgamma stimulation by qRT-PCR analysis; type: cell-based
Target sequence in this assay (P48736 whole entry, looked up, canonical isoform): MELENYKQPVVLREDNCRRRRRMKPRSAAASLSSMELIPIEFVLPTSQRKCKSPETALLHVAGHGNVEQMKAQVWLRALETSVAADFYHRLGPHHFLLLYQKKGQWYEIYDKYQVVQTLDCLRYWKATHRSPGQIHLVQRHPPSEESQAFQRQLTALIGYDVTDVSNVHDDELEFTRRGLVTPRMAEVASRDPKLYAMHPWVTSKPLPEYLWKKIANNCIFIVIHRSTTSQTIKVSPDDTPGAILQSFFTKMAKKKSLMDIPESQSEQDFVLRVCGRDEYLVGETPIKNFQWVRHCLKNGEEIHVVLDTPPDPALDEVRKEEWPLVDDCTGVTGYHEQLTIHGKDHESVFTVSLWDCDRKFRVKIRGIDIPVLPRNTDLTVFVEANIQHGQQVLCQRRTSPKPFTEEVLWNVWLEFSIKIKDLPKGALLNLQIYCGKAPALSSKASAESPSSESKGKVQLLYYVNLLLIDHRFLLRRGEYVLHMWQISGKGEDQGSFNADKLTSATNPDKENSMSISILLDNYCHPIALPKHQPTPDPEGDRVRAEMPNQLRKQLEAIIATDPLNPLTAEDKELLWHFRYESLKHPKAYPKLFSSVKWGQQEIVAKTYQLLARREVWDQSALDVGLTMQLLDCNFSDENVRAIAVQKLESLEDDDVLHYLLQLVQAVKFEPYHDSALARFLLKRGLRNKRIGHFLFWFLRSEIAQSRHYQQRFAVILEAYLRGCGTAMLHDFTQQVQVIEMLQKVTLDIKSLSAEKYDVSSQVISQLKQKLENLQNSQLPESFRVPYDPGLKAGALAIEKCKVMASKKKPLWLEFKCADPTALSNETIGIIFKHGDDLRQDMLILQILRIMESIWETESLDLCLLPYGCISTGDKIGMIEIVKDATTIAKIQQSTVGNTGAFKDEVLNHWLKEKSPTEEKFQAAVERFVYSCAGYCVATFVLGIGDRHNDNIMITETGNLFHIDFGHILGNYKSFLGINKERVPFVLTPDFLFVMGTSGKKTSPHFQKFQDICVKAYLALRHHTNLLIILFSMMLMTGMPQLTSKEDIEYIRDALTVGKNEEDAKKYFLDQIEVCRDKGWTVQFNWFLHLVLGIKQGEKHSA

[6] = MRT (infinity) in C57BL/6 mouse at 0.5 mg/kg, iv; type: ADME, organism-based; conditions: in vivo
[7] = AUC(0 to infinity) in Sprague-Dawley rat at 10 mg/kg, po measured up to 24 hrs by LC-MS/MS analysis analysis; type: ADME, organism-based; design: dose 10 mg/kg, time < 24 hrs, route po; conditions: in vivo
[8] = target: Cytochrome P450 2C19 (Homo sapiens, UniProt P33261); assay: Time dependent inhibition of CYP2C19 in human liver microsomes at 40 uM using (S)-mephenytoin as substrate measured after 5 to 20 mins in presence of NADPH by LC/MS/MS analysis; type: ADME, Microsome
[9] = target: Cytochrome P450 2D6 (Homo sapiens, UniProt P10635); assay: Time dependent inhibition of CYP2D6 in human liver microsomes at 40 uM using dextromethorphan as substrate measured after 5 to 20 mins in presence of NADPH by LC/MS/MS analysis; type: ADME, Microsome
[10] = target: T1, Phosphatidylinositol 4,5-bisphosphate 3-kinase catalytic subunit gamma isoform; assay: Inhibition of PI3Kgamma (unknown origin) at 10 uM using PIP2 as substrate preincubated for 60 mins followed by substrate addition and measured after 45 mins in presence of ATP by TR-FRET analysis
Target sequence in this assay (P48736 whole entry, canonical isoform): as the sequence (P48736 whole entry, looked up, canonical isoform) above

[11] = target: Voltage-gated inwardly rectifying potassium channel KCNH2 (Homo sapiens, UniProt Q12809); assay: Inhibition of human ERG by patch clamp assay; type: toxicity
[12] = target: T1, Phosphatidylinositol 4,5-bisphosphate 3-kinase catalytic subunit gamma isoform; assay: Inhibition of P13Kgamma in LPS and IFNgamma stimulated human M1 macrophage assessed as increase in IL12B expression at 1 uM pretreated for 1 hr followed by LPS and IFNgamma stimulation by qRT-PCR analysis; type: cell-based
Target sequence in this assay (P48736 whole entry, looked up, canonical isoform): as above

[13] = AUC(0 to infinity) in C57BL/6 mouse at 0.5 mg/kg, iv; type: ADME, organism-based; design: time infinity, dose 0.5 mg/kg, route iv; conditions: in vivo
[14] = Plasma protein binding in Sprague-Dawley rat plasma at 1 mg/kg, iv measured up to 8 hrs by LC-MS/MS analysis; type: ADME, organism-based; conditions: read-out: PPB (converted)
[15] = Plasma protein binding in Beagle dog at 1 mg/kg, iv; type: ADME, organism-based, Canis lupus familiaris; conditions: read-out: PPB (converted)
[16] = Hepatic clearance in Sprague-Dawley rat by LC-MS/MS analysis; type: ADME; conditions: in vivo
[17] = Clearance in cynomolgus monkey at 1 mg/kg, iv; type: ADME, organism-based, Macaca fascicularis; conditions: in vivo
[18] = target: hERG (Homo sapiens, UniProt Q12809); assay: Inhibition of human ERG at 10 uM by patch clamp assay relative to control; type: toxicity
[19] = Metabolic stability in human hepatocytes assessed as parent compound remaining at 0.5 uM measured after 2 hrs by LC-MS/MS analysis; type: ADME, cell-based, Hepatocyte
[20] = Apparent permeability of the compound across apical to basolateral side in human Caco-2 cells; type: toxicity, cell-based; conditions: in vivo, 100 mg/kg, 168 h, time 7 day
[21] = target: Cytochrome P450 2C9 (Homo sapiens, UniProt P11712); assay: Time dependent inhibition of CYP2C9 in human liver microsomes at 40 uM using diclofenac as substrate measured after 5 to 20 mins in presence of NADPH by LC/MS/MS analysis; type: ADME, Microsome
[22] = target: T2, Cytochrome P450 1A2 (Homo sapiens, UniProt P05177); assay: Time dependent inhibition of CYP1A2 in human liver microsomes at 40 uM using phenacetin as substrate measured after 5 to 20 mins in presence of NADPH by LC/MS/MS analysis; type: ADME, Microsome
T2 sequence (P05177 whole entry): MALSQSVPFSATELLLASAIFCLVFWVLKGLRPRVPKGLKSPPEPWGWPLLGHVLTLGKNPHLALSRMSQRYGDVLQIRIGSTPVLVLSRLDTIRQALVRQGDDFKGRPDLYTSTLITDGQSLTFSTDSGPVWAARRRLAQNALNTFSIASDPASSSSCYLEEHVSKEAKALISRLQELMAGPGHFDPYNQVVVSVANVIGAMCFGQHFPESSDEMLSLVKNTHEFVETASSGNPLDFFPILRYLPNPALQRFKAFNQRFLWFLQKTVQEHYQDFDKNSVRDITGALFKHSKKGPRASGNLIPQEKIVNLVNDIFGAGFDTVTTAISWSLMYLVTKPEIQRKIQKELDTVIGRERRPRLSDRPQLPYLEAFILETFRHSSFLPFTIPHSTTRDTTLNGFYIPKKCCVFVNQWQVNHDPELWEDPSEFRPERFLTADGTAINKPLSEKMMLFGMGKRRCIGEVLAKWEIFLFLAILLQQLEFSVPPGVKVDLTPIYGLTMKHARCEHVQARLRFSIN

[23] = target: T1, Phosphatidylinositol 4,5-bisphosphate 3-kinase catalytic subunit gamma isoform; assay: Inhibition of PI3Kgamma in SDF-1alpha stimulated human whole blood assessed as reduction in phospho-AKT kinase activity preincubated for 1 hr followed by SDF-1alpha stimulation and measured after 2 mins by flow cytometric analysis; type: tissue-based
Target sequence in this assay (P48736 whole entry, canonical isoform): as the sequence (P48736 whole entry, looked up, canonical isoform) above

[24] = target: T3, Cytochrome P450 2B6 (Homo sapiens, UniProt P20813); assay: Time dependent inhibition of CYP2B6 in human liver microsomes at 40 uM measured after 5 to 20 mins in presence of NADPH by LC/MS/MS analysis; type: ADME, Microsome
T3 sequence (P20813 whole entry): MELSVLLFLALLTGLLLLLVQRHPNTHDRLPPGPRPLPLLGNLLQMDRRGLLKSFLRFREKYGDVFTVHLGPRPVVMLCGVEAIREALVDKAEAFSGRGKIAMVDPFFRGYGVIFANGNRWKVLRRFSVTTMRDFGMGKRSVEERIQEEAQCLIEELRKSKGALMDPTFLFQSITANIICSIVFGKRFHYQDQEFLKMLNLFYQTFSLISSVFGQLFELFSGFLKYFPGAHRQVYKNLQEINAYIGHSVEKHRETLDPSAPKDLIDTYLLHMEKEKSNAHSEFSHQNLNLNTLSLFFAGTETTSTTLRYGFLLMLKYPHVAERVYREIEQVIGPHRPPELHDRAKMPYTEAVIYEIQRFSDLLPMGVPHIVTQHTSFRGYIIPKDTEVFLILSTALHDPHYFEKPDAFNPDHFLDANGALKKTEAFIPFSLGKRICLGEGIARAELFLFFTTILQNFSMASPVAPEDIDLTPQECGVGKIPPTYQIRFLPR

Sequence of hERG (Q12809 whole entry): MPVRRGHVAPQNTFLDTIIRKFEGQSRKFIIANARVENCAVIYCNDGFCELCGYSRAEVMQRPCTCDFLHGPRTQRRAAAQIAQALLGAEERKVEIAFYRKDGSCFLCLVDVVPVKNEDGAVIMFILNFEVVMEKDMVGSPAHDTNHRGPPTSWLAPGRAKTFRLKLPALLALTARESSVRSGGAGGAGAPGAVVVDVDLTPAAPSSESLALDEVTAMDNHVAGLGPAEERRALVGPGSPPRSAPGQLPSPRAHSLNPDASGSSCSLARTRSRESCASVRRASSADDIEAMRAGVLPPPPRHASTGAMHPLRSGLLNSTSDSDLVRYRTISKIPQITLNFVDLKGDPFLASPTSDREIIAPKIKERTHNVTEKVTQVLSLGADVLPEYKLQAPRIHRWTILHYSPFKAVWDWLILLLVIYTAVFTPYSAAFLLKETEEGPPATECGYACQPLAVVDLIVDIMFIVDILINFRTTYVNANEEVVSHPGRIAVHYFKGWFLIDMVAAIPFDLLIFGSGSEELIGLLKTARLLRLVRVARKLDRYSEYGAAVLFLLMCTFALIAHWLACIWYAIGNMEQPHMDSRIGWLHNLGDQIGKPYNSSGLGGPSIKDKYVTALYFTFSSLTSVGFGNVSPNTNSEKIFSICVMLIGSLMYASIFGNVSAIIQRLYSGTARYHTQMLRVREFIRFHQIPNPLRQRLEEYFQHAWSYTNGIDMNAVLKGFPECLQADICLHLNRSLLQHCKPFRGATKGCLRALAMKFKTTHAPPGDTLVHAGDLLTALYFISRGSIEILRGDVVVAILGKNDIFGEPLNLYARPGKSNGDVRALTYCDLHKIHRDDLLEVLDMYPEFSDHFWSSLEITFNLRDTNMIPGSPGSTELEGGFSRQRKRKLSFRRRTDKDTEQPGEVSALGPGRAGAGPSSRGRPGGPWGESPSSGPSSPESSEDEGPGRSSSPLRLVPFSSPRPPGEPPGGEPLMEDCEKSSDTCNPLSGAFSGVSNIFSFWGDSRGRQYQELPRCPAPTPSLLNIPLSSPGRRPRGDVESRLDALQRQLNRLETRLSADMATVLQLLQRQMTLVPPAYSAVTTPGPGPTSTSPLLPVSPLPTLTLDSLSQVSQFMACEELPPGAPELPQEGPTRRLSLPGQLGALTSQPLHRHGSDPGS
Sequence of Cytochrome P450 2C9 (P11712 whole entry): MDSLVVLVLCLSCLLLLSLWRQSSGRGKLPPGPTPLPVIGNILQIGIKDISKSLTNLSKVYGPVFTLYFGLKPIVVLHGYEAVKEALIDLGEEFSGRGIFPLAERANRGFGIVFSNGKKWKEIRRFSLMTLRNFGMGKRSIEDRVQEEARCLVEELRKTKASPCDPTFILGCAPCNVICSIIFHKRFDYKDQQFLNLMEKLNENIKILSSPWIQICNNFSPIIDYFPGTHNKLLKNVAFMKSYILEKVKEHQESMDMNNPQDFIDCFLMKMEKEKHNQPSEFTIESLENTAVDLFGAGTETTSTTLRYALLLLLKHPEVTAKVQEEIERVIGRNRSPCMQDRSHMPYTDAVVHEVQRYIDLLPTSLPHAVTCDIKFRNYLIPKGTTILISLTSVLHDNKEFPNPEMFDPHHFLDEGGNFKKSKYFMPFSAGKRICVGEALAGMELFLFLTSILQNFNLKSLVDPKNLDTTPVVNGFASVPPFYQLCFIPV
Sequence of Cytochrome P450 2D6 (P10635 whole entry, canonical isoform): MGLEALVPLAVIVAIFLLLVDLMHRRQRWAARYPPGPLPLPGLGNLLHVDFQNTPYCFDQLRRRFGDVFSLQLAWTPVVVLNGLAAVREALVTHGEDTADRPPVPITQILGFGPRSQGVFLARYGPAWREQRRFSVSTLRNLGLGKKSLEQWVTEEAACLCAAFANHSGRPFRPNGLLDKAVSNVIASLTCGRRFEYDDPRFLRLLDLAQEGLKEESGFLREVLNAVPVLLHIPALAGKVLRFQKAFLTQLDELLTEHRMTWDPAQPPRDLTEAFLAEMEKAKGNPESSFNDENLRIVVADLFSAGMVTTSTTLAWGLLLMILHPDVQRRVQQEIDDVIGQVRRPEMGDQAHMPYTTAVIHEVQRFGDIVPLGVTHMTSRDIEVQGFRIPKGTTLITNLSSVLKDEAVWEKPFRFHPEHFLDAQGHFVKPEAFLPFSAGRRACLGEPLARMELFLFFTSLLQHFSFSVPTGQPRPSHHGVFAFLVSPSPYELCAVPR
Sequence of Voltage-gated inwardly rectifying potassium channel KCNH2 (Q12809 whole entry, canonical isoform): as the sequence (Q12809 whole entry) above
Sequence of Cytochrome P450 2C19 (P33261 whole entry): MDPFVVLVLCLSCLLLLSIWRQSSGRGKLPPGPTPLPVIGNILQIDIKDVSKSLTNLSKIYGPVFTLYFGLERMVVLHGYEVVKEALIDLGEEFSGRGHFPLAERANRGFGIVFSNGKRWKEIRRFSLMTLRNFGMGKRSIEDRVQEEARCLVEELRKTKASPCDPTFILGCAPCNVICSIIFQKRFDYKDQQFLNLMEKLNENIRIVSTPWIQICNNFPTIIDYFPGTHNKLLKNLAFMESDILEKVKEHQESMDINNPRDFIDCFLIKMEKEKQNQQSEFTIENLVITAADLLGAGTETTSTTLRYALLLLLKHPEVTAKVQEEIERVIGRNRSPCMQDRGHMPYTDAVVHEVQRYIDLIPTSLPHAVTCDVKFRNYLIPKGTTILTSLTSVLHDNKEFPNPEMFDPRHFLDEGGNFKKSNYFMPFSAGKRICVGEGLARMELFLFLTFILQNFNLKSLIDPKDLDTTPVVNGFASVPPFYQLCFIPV

Structure (SMILES)	Ratio IC50 [1]	hepatocyte intrinsic clearance [2] [µL/min]	clearance [3] [mL/min/kg]	half-life [4] [h]	inhibition [5]	MRT inf [6] [h]	AUC(0-inf) [7] [ng·h/mL]	inhibition [12]	AUC(0-inf) [13] [ng·h/mL]	fraction unbound at 8 h [14]	fraction unbound [15]	CLH [16] [mL/min/kg]	clearance [17] [mL/min/kg]	inhibition at 10 µM [18] [%]	Stability [19] [%]	IC50 [23] [µM]	also measured
C[C@@H](C1CC1)N1Cc2cc(-c3ccn4nc(N)c(C(=O)N[C@H]5CC[C@@](C)(O)CC5)c4n3)cc(OC(F)F)c2C1=O	657	2.62	27.5	1.89	Active	1.87	8160	Active	565	0.021	0.034	25	18	17	94	0.3	IC50 [8]: > 20 µM; IC50 [9]: > 20 µM; Ki [10]: 0.0007 µM; IC50 [11]: > 10 µM; Activity [20]: Non-Toxic; IC50 [21]: > 20 µM; IC50 [22]: > 20 µM; IC50 [24]: > 20 µM
C[C@@H](C1CC1)N1Cc2cc(-c3ccn4nc(N)c(C(=O)N[C@H]5CC[C@@](C)(O)CC5)c4n3)cc(OC(F)(F)F)c2C1=O	946	6.07	20.8	2.17	Active	2.03	249	Active	488	0.023	0.048	30	17.7	5	58	0.24	
